Values quoted from earlier work as cited in US20260001860A1, “METHODS AND COMPOSITIONS OF INHIBITING DCN1-UBC12 INTERACTION” (University of Kentucky Research Foundation, priority 2022, published 2026).

Details: patient population taking either proteasome inhibitor

| Compound | patient population exhibiting grade 3 hematologic adverse events (thrombocytopenia and neutropenia) | patients suffering grade 4 adverse events (potentially life-threatening) |
| --- | --- | --- |
| CC(C)C[C@H](NC(=O)[C@H](Cc1ccccc1)NC(=O)c1cnccn1)B(O)O [bortezomib] | 50% | ~15% |
| CC(C)C[C@H](NC(=O)[C@H](CCc1ccccc1)NC(=O)CN1CCOCC1)C(=O)N[C@@H](Cc1ccccc1)C(=O)N[C@@H](CC(C)C)C(=O)[C@@]1(C)CO1 [carfilzomib] | 50% | ~15% |
